Tested on: subjects with chronic hepatitis C virus (HCV) associated thrombocytopenia
Assay: placebo controlled, double blind, dose-ranging study of Compound A before and with IFN and ribavirin
Format: in vivo, human
Settings: for Median platelet count at Week 4: 4 weeks
Experimental: The safety, tolerability, efficacy and pharmacokinetics of repeat oral daily doses of 3′-{N′-[1-(3,4-Dimethylphenyl)-3-methyl-5-oxo-1,5-dihydropyrazol-4-ylidene]hydrazino}-2′-hydroxybiphenyl-3-carboxylic acid bis-(monoethanolamine);
(hereinafter Compound A) in subjects with chronic hepatitis C virus (HCV) associated thrombocytopenia, which precluded initiation of treatment with pegylated interferon (IFN) and ribavirin is assessed in this study.
HCV infected subjects with compensated cirrhosis and platelet counts between 20-70,000/ul were randomly allocated to 1 of 4 treatment groups (30, 50, 75 mg eltrombopag or placebo). During Part 1, Compound A was administered in tablet form once daily for 4 weeks. Subjects who achieved platelet counts of >70,000/ul at the end of Part 1 were eligible to enter Part 2, during which subjects initiated therapy with IFN and ribavirin and continued their randomized treatment for a maximum of 12 weeks. A follow-up visit was performed 4 weeks after last dose of study drug. The primary endpoint was defined as an increase in platelet count to 100,000/ul at Week 4.

[1] = range over the Compound A groups (30, 50, 75 mg)

Question: Which results are given for `CC1=NN(c2ccc(C)c(C)c2)C(=O)C1=NNc1cccc(-c2cccc(C(=O)O)c2)c1O` [Compound A, 3′-{N′-[1-(3,4-Dimethylphenyl)-3-methyl-5-oxo-1,5-dihydropyrazol-4-ylidene]hydrazino}-2′-hydroxybiphenyl-3-carboxylic acid bis-(monoethanolamine)]?
Answer: Median platelet count at Week 4 (30 mg once daily oral): 136500 µL⁻¹; Median platelet count at Week 4 (50 mg once daily oral): 213500 µL⁻¹; Median platelet count at Week 4 (75 mg once daily oral): 209000 µL⁻¹; platelet counts at Day 28 (all treatment groups (30, 50, 75 mg)): increased platelet counts; subjects completing 12 weeks of antiviral therapy [1]: 36-65%; subjects who completed 12 weeks of antiviral therapy [1]: 5-15 subjects

Source: patent US20120020923A1, “Method of treating viral diseases with combinations of TPO receptor agonist and anti-viral agents” (priority 2006, published 2012)
